Laboratory results from patent US5821038A, “Yeast with modified permeability” (priority 1994, dated 1998).
pEC50, pIC50: −log10 of the molar value. Like-named read-outs stand apart in the source and are kept apart here. Numbered stars: 1 amine (or outer) side, 2 acyl side, 3 side chain; on linkers, the order of the positions; unused ones are H or OH. Bridge positions count the residues as written; N and C are the ends. Square brackets hold non-standard residues; d marks the D form. Peptide text beside a SMILES is read from it. I, II: the chains in the order shown. Actinocin(9to1) = Cc1c2oc3c(C)ccc(C(=O)[*:1])c3nc-2c(C(=O)[*:2])c(N)c1=O; NMeV = CN[C@H](C(=O)O)C(C)C; Sar = CNCC(=O)O

What was measured:
Type in all cases: cell-based, Saccharomyces cerevisiae
5247 (wt) [1] = assay: Growth inhibition (sensitivity to cytotoxic products) as measure of permeability, wild-type strain (Examples 2 and 4); details: for pEC50: Saccharomyces cerevisiae; for RATIO: EC50 relative to wild type 5247, 2880 min
Experimental: (§1) The strain of yeast used is the strain S. cerevisiae 5247 (Marcireau, 1992) of the ura3, trp1, MAT α genotype. This strain is transformed according to the method described by Gietz (Gietz, 1992).
(§2) The permeability of the yeasts obtained in Example 1 is determined by measuring the sensitivity to different cytotoxic products. The different yeasts are inoculated at an optical density of 0.05 to 700 nm in YNB minimum medium correctly supplemented with bases and amino acids in the presence of an increasing concentration of xenobiotics. The cultures are placed at 28° C. and at 200 rpm for 48 hours. The optical density at 700 nm is then measured. The EC50 is then determined as the xenobiotic concentration inhibiting the growth of the yeast by half compared with a control without xenobiotic.
(§3) This evaluation was carried out according to the procedure described in Example 2.

yCM55 (Δerg6) = assay: Growth inhibition (sensitivity to cytotoxic products) as measure of permeability, strain yCM55; details: for pEC50: Saccharomyces cerevisiae; for RATIO: EC50 5247 (wt) / EC50 yCM55, 2880 min
Experimental: as §2
The strain 5247 is transformed by the fragment prepared as described in 1a. After elimination of the selectable marker, the strain yCM55 (Δerg6,ura3, trp1, MAT α) is obtained.
as §3

yCM65 (Δpdr1, Δerg4) = assay: Growth inhibition (sensitivity to cytotoxic products) as measure of permeability, strain yCM65; details: for pEC50: Saccharomyces cerevisiae; for RATIO: EC50 5247 (wt) / EC50 yCM65, 2880 min
Experimental: (§4) The strain 5247 is transformed as described in 3) with the fragments prepared as described in 2a), 2b), 2c). After elimination of the selectable marker, the strains yCM30 (Δpdr1, ura3, trp1, MAT α), yCM63 (Δerg4, ura3, trp1, MAT α) and yCM65 (Δpdr1, Δerg4, ura3, trp1, MAT α) are obtained.
as §2

yCM57 (Δpdr1, Δerg6) = assay: Growth inhibition (sensitivity to cytotoxic products) as measure of permeability, strain yCM57; details: for RATIO: EC50 5247 (wt) / EC50 yCM57, 2880 min
Experimental: as §2
The strain yCM30 is transformed by the fragment prepared as described in la. After elimination of the selectable marker, the strain yCM57 (Δpdr1, Δerg6, ura3, trp1, MAT α) is obtained.
as §3

yCM63 (Δerg4) = assay: Growth inhibition (sensitivity to cytotoxic products) as measure of permeability, strain yCM63; details: for RATIO: EC50 5247 (wt) / EC50 yCM63, 2880 min; for pEC50: Saccharomyces cerevisiae, YNB minimum medium, 28° C., 48 hours, OD 700 nm
Experimental: as §4, §2

yCM30 (Δpdr1) = assay: Growth inhibition (sensitivity to cytotoxic products) as measure of permeability, strain yCM30; details: for pEC50: Saccharomyces cerevisiae; for RATIO: EC50 5247 (wt) / EC50 yCM30, 2880 min
Experimental: as §4, §2, §3

5247 (wt) [2] = assay: Growth inhibition (sensitivity to cytotoxic products) as measure of permeability, wild-type strain (Example 6)
Experimental: as §1
(§5) The permeability of the yeast strains 5247 and yCM61 is determined by measurement of the sensitivity to different cytotoxic products. The different yeasts are inoculated at an optical density of 0.05 to 700 nm in YNB minimum medium correctly supplemented with bases and amino acids in the presence of an increasing concentration of xenobiotics. The cultures are placed at 28° C. and at 200 rpm for 48 hours. The optical density at 700 nm is then measured. The EC50 is determined as the xenobiotic concentration inhibiting the growth of the yeast by half compared with a control without xenobiotic.

[3] = test system: yCM61 (Δpdr1, Δpdr5, Δsnq2, Δerg6); assay: Growth inhibition (sensitivity to cytotoxic products) as measure of permeability, strain yCM61 (Example 6)
Excerpt: The strain yCM30 is transformed by the fragment prepared as described in Example 5 in 1a. After elimination of the selectable marker, the strain yCM45 (Δpdr1, Δpdr5, ura3, trp1, MAT α) is obtained. The strain yCM45 is transformed by the fragment prepared as described in Example 5 in 1b. After elimination of the selectable marker, the strain yCM51 (Δpdr1, Δpdr5, Δsnq2, ura3, trp1, MAT α) is obtained. The strain yCM51 is transformed by the fragment prepared as described in Example 1 in 1a. After elimination of the selectable marker, the strain yCM61 (Δpdr1, Δpdr5, Δsnq2, Δerg6, ura3, trp1, MAT α) is obtained.
as §5

[4] = strain 5247 (wt), YNB minimum medium, 28° C., 48 hours, OD 700 nm, read-out: EC50
[5] = strain yCM55 (Δerg6), YNB minimum medium, 28° C., 48 hours, OD 700 nm, read-out: EC50
[6] = strain yCM65 (Δpdr1, Δerg4), YNB minimum medium, 28° C., 48 hours, OD 700 nm, read-out: EC50
[7] = strain yCM30 (Δpdr1), YNB minimum medium, 28° C., 48 hours, OD 700 nm, read-out: EC50
[8] = EC50 5247 (wt) / EC50 yCM61, 2880 min
[9] = Saccharomyces cerevisiae, Example 6, strain 5247 (wt), YNB minimum medium, 28° C., 48 hours, OD 700 nm, read-out: EC50
[10] = Saccharomyces cerevisiae, Example 6, strain yCM61 (Δpdr1, Δpdr5, Δsnq2, Δerg6), YNB minimum medium, 28° C., 48 hours, OD 700 nm, read-out: EC50

With `Cc1c2oc3c(C)ccc(C(=O)N[C@@H]4C(=O)N[C@H](C(C)C)C(=O)N5CCC[C@H]5C(=O)N(C)CC(=O)N(C)[C@@H](C(C)C)C(=O)O[C@@H]4C)c3nc-2c(C(=O)N[C@@H]2C(=O)N[C@H](C(C)C)C(=O)N3CCC[C@H]3C(=O)N(C)CC(=O)N(C)[C@@H](C(C)C)C(=O)O[C@@H]2C)c(N)c1=O` [ACTINOMYCIN D, actinomycin D] (I: T[dV]P[Sar][NMeV] / II: T[dV]P[Sar][NMeV]; ester I:1-I:C, II:1-II:C; linker I:N-II:N via Actinocin(9to1)) the pEC50 (5247 (wt) [1]; [4]) was 4.62, the RATIO (5247 (wt) [1]; strain 5247 (wt)) was 1 and the pEC50 (yCM55 (Δerg6); [5]) was 5.25. For the same molecule, the RATIO (yCM55 (Δerg6); strain yCM55 (Δerg6)) was 4.3, the pEC50 (yCM65 (Δpdr1, Δerg4); [6]) was 5.24 and the RATIO (yCM65 (Δpdr1, Δerg4); strain yCM65 (Δpdr1, Δerg4)) was 4.1. For the same molecule, the pIC50 (yCM57 (Δpdr1, Δerg6); Saccharomyces cerevisiae, strain yCM57 (Δpdr1, Δerg6), YNB minimum medium, 28° C., 48 hours, OD 700 nm, read-out: EC50 (the source's name)) was 6.12, the RATIO (yCM57 (Δpdr1, Δerg6); strain yCM57 (Δpdr1, Δerg6)) was 31.9 and the RATIO (yCM63 (Δerg4)) was 3.7. It also gave a pEC50 (yCM63 (Δerg4)) of 5.19, a pEC50 (yCM30 (Δpdr1); [7]) of 4.90 and an RATIO (yCM30 (Δpdr1); strain yCM30 (Δpdr1)) of 1.9.
`CC[C@@]1(O)C(=O)OCc2c1cc1n(c2=O)Cc2cc3ccccc3nc2-1` [Camptothecin] was tested, and the pEC50 (5247 (wt) [2]; Saccharomyces cerevisiae, 48 h) was < 3.24, the RATIO [3, 8] was > 100 and the pEC50 ([3]; Saccharomyces cerevisiae, 48 h) was 5.24.
Work on `C[C@@H]1C[C@@H]([C@H](O)CC2CC(=O)NC(=O)C2)C(=O)[C@@H](C)C1` [Cycloheximide] yielded a pEC50 (5247 (wt) [1]; 48 h) of 4.28, an RATIO (5247 (wt) [1]; strain 5247 (wt)) of 1 and a pEC50 (yCM55 (Δerg6); 48 h) of 5.64. The RATIO (yCM55 (Δerg6); strain yCM55 (Δerg6)) was 23, the pEC50 (yCM65 (Δpdr1, Δerg4); 48 h) was 6.30 and the RATIO (yCM65 (Δpdr1, Δerg4); strain yCM65 (Δpdr1, Δerg4)) was 106. The pEC50 (5247 (wt) [2]; Saccharomyces cerevisiae, 48 h) was 4.15, the pIC50 (yCM57 (Δpdr1, Δerg6); Saccharomyces cerevisiae, 48 h, read-out: EC50) was 6.70 and the RATIO (yCM57 (Δpdr1, Δerg6); strain yCM57 (Δpdr1, Δerg6)) was 265. The pEC50 (yCM30 (Δpdr1); 48 h) was 5.60, the RATIO (yCM30 (Δpdr1); strain yCM30 (Δpdr1)) was 21.2 and the RATIO [3, 8] was 500. For the same molecule, the pEC50 ([3]; Saccharomyces cerevisiae, 48 h) was 6.85.
Molecule `COc1cccc2c1C(=O)c1c(O)c3c(c(O)c1C2=O)C[C@@](O)(C(=O)CO)C[C@@H]3O[C@H]1C[C@H](N)[C@H](O)[C@H](C)O1` [DOXORUBICIN, doxorubicin] has a pEC50 (5247 (wt) [1]; [4]) of 4.39, an RATIO (5247 (wt) [1]; strain 5247 (wt)) of 1 and a pEC50 (yCM55 (Δerg6); [5]) of 4.92. For the same molecule, the RATIO (yCM55 (Δerg6); strain yCM55 (Δerg6)) was 3.4, the pEC50 (yCM65 (Δpdr1, Δerg4); [6]) was 5.29 and the RATIO (yCM65 (Δpdr1, Δerg4); strain yCM65 (Δpdr1, Δerg4)) was 7.8. For the same molecule, the pEC50 (yCM57 (Δpdr1, Δerg6); Saccharomyces cerevisiae, strain yCM57 (Δpdr1, Δerg6), YNB minimum medium, 28° C., 48 hours, OD 700 nm) was 5.77, the RATIO (yCM57 (Δpdr1, Δerg6); strain yCM57 (Δpdr1, Δerg6)) was 23.8 and the RATIO (yCM63 (Δerg4)) was 4.4. It also gave a pEC50 (yCM63 (Δerg4)) of 5.04, a pEC50 (yCM30 (Δpdr1); [7]) of 4.74 and an RATIO (yCM30 (Δpdr1); strain yCM30 (Δpdr1)) of 2.2.
Molecule `CC[C@H](C)C(=O)O[C@H]1C[C@@H](C)C=C2C=C[C@H](C)[C@H](CC[C@@H]3C[C@@H](O)CC(=O)O3)[C@H]21` [Lovastatin] has a pEC50 (5247 (wt) [2]; [9]) of 3.84, a pEC50 [3, 10] of 5.42 and an RATIO ([3]; s. cerevisiae ycm61, 2880 min) of 37.
`CO[C@@H]1[C@@H](OC(N)=O)[C@@H](O)[C@H](Oc2ccc3c(O)c(NC(=O)c4ccc(O)c(CC=C(C)C)c4)c(=O)oc3c2C)OC1(C)C` [Novobiocin] gave a pEC50 (5247 (wt) [2]; [9]) of 3.61, an RATIO [3, 8] of 27 and a pEC50 [3, 10] of 5.05.
`Cc1cc(C)nc(NC(=O)NS(=O)(=O)c2ccccc2C(=O)O)n1` [Sulphomethuron] was tested, and the pEC50 (5247 (wt) [2]; Example 6, strain 5247 (wt), YNB minimum medium, 28° C., 48 hours, OD 700 nm, read-out: EC50) was 5.16, the RATIO [3, 8] was > 50 and the pEC50 ([3]; Example 6, strain yCM61 (Δpdr1, Δpdr5, Δsnq2, Δerg6), YNB minimum medium, 28° C., 48 hours, OD 700 nm, read-out: EC50) was > 6.89.
